Measurements from patent publication US20200354426A1 (MEDIMMUNE LIMITED, priority 2016, published 2020).
Marks after values point to notes of the source that are not given here. Numbered stars: 1 amine (or outer) side, 2 acyl side, 3 side chain; on linkers, the order of the positions; unused ones are H or OH. Side chains are listed from the residue outwards. Peptide text beside a SMILES is read from it. * marks the point of attachment. γGlu = O=C(O)[C@H](CCC(=O)[*:2])N[*:1]; Palmitoyl = CCCCCCCCCCCCCCCC(=O)*

Experiments:
[1] = test system: diet induced obesity (DIO) mouse model; assay: Diet induced obesity (DIO) mouse model, study A; format: in vivo; conditions: for BeHy / FGF21 / HOMA / Hepatic TG / Plasma Cholesterol / Plasma NEFA / Plasma TG: day 14; for Glucose / Insulin: day 14, 4-hour fasting
From the text: (§1) Female C57/B16JHsdOla (obtained from Harlan Laboratories. UK) were started on a high fat diet of D12492 (Research Diets, NJ, USA) and a chocolate confection, delicato ball (Delicata Bakverk, Sweden) at 9-11 weeks of age, and were maintained on the diet for 16 weeks prior to arrival to the animal facility, during a three week acclimation period and during drug treatment, caloric content of the two components of the diet is shown in Table 11. The mice were divided into 9 groups (n=5-6), and treatment was started at 29 weeks of age.
The body weight of the animals was monitored daily throughout the dosing period. At day 14, blood samples for the measurement of plasma glucose and insulin from conscious mice were obtained after a 4-hour fasting period. Mice were then anaesthetized using isoflurane and terminal blood was collected from the capillary bed behind the eye. The following parameters were measured: blood chemistry measurements of triglycerides, total cholesterol, non-esterified fatty acids (NEFA), beta-hydroxybutyrate and fibroblast growth factor 21 (FGF21) (Tables 14 and 15 below).

[2] = Stability testing of peptides in plasma; format: in vitro ADME, rat
Protocol: The stability in plasma of the peptideS […], […], […] and […] was determined as follows. […] The spiked plasma samples were gently mixed and allowed to equilibrate for about 5 minutes before start of experiment. The plasma samples were incubated for 48 hours in a GalaxyR CO2 incubator at 37° C. […] The samples were stored at -70° C. until analysis. Plasma samples were assayed as follows. […] After mixing and centrifugation, 100 μl the supernatant was transferred to a new plate and 1 μl was injected onto an analytical column. The analysis was performed using a μLC-system ([…]) coupled to a medium high resolution mass spectrometer (Perkin Elmer PenTOF) with positive electrospray ionisation. […] Flow: 0.1 ml/min using a slow reversed phase gradient. […] Cleavage products arise from the action of the protease DPP IV in plasma. Both the degradation of the peptides and formation of peptide products were reported in percentage of the initial peptide concentration. Peaks were integrated and % remaining peptide was calculated: […] Levels of deamidation and DPP IV cleavage were low for […] and […].

[3] = test system: diet induced obesity (DIO) mouse model; assay: Diet induced obesity (DIO) mouse model, study B; format: in vivo; conditions: for HOMA / BeHy / FGF21 / Hepatic TG / Plasma Cholesterol / Plasma TG: day 14
From the text: as §1
The body weight of the animals was monitored daily throughout the dosing period. At day 14, blood samples for the measurement of plasma glucose and insulin from conscious mice were obtained after a 4-hour fasting period. Mice were then anaesthetized using isoflourane and terminal blood was collected from the capillary bed behind the eye. The following parameters were measured: blood chemistry measurements of triglycerides, total cholesterol, non-esterified fatty acids (NEFA), beta-hydroxybutyrate and fibroblast growth factor 21 (FGF21) (Table 16 and Table 17 below).

healthy volunteers = assay: Phase 1 single-ascending-dose study of G933 (PK, PD, immunogenicity, safety); format: in vivo, human; conditions: for Overall daily food intake compared with placebo: across breakfast, lunch and dinner; for Median glucose peak after breakfast: approximately 1 hour post breakfast, 3.5 hours post dose; for Median glucose peak after dinner: approximately 1 hour post dinner, […] post dose; for Median glucose peak after lunch: approximately 1 hour post lunch, 7 hours post dose
From the text: The subjects were screened for the following inclusion and exclusion criteria.
Inclusion Criteria: • Healthy volunteers, ages 18 through 45 years at the time of screening; • Body mass index ≥22 and ≤30 kg/m^2 and body weight ≥70 kg; and • Venous access suitable for multiple cannulations.
The period of exclusion to begin 30 days or 5 half-lives of investigational product after the final dose, or after the last visit, whichever is longest. Subjects consented and screened, but not randomized into this study or a previous study, are not excluded; or • Psychiatric illness such that subjects have been committed to an institution by way of official or judicial order
Eight subjects per cohort were planned.

[4] = 10 nmol/kg sc twice daily 14 days

Which results are given for `CCCCCCCCCCCCCCCC(=O)N[C@@H](CCC(=O)NCCCC[C@H](NC(=O)[C@H](CCCCN)NC(=O)[C@H](CO)NC(=O)[C@H](Cc1ccc(O)cc1)NC(=O)[C@H](CC(=O)O)NC(=O)[C@H](CO)NC(=O)[C@@H](NC(=O)[C@H](Cc1ccccc1)NC(=O)[C@@H](NC(=O)CNC(=O)[C@H](CCC(N)=O)NC(=O)[C@H](CO)NC(=O)[C@@H](N)Cc1c[nH]cn1)[C@@H](C)O)[C@@H](C)O)C(=O)N[C@@H](CC(C)C)C(=O)N[C@@H](CC(=O)O)C(=O)N[C@@H](CO)C(=O)N[C@@H](CCC(=O)O)C(=O)N[C@@H](CCCNC(=N)N)C(=O)N[C@@H](C)C(=O)N[C@@H](CCCNC(=N)N)C(=O)N[C@@H](CC(=O)O)C(=O)N[C@@H](Cc1ccccc1)C(=O)N[C@H](C(=O)N[C@@H](C)C(=O)N[C@@H](Cc1c[nH]c2ccccc12)C(=O)N[C@@H](CC(C)C)C(=O)N[C@H](C(=O)N[C@@H](C)C(=O)NCC(=O)NCC(N)=O)C(C)C)C(C)C)C(=O)O` [Peptide G730] (H-HSQGTFTSDYSKK([γGlu-Palmitoyl])LDSERARDFVAWLVAGG-NH2; N-terminus assumed)?
BW day 14 (% change of vehicle mean) [1, 4]: −7.5%; BeHy ([1]; 10 nmol/kg sc twice daily): 428 µmol/L; FGF21 ([1]; 10 nmol/kg sc twice daily): 1963 pg/mL; HOMA ([1]; 10 nmol/kg sc twice daily): 3.3; Hepatic TG ([1]; 10 nmol/kg sc twice daily): 9.0 * g TB/100 g tissue; Plasma Cholesterol ([1]; 10 nmol/kg sc twice daily): 3.10 mM; Plasma NEFA ([1]; 10 nmol/kg sc twice daily): 0.28 Mm; Plasma TG ([1]; 10 nmol/kg sc twice daily): 0.21 mM; Glucose ([1]; 10 nmol/kg sc twice daily): 7.2 mM; Insulin ([1]; 10 nmol/kg sc twice daily): 0.4 nM; BW day 14 (% change of vehicle mean) ([1]; 20 nmol/kg sc twice daily 14 days): −15.6%; BeHy ([1]; 20 nmol/kg sc twice daily): 750 µmol/L; FGF21 ([1]; 20 nmol/kg sc twice daily): 2236 pg/mL; HOMA ([1]; 20 nmol/kg sc twice daily): 1.7; Hepatic TG ([1]; 20 nmol/kg sc twice daily): 17.7 g TB/100 g tissue; Plasma Cholesterol ([1]; 20 nmol/kg sc twice daily): 2.46 mM; Plasma NEFA ([1]; 20 nmol/kg sc twice daily): 0.25 Mm; Plasma TG ([1]; 20 nmol/kg sc twice daily): 0.20 mM; Glucose ([1]; 20 nmol/kg sc twice daily): 6.7 mM; Insulin ([1]; 20 nmol/kg sc twice daily): 0.2 nM; BeHy ([1]; 50 nmol/kg sc twice daily): 1477 µmol/L; FGF21 ([1]; 50 nmol/kg sc twice daily): 5294 pg/mL; HOMA ([1]; 50 nmol/kg sc twice daily): 2.1; Hepatic TG ([1]; 50 nmol/kg sc twice daily): 28.1 g TB/100 g tissue; Plasma Cholesterol ([1]; 50 nmol/kg sc twice daily): 2.19 mM; Plasma NEFA ([1]; 50 nmol/kg sc twice daily): 0.32 Mm; Plasma TG ([1]; 50 nmol/kg sc twice daily): 0.23 mM; Glucose ([1]; 50 nmol/kg sc twice daily): 5.9 mM; Insulin ([1]; 50 nmol/kg sc twice daily): 0.3 nM; body weight over the 14 day dosing period ([1]; DIO mice, FIGS. 1-4): dose dependent and continuous weight loss; % +1 prod [2]: 58%; % DPP cleaved product/+1 DPP cleaved product [2]: 2%; remaining at 24 h, 2 μmol/L ([2]; rat, plasma): 24%

For “L-Histidyl-L-seryl-L-glutaminylglycyl-L-threonyl-L-phenylalanyl-L-threonyl-L-seryl-L-alpha-aspartyl-(N6-[N-(1-oxohexadecyl)-L-gamma-gutamyl])L-lysy-L-sery-L-alpha-glutamyl-L-tyrosyl-L-leucyl-L-alpha-aspartyl-L-seryl-L-alpha-glutamyl-L-arginyl-L-alanyl-L-arginyl-L-alpha-L-aspartyl-L-phenylalanyl-L-valyl-L-alanyl-L-tryptophyl-L-leucyl-L-alpha-glutamyl-L-alanylglycylglycine [Peptide G933]”, which “BW day 14 (% change of vehicle mean)” value ([3]; 5 nmol/kg sc twice daily 14 days) is on record?
Its value is −11%.

What about the HOMA ([3]; 5 nmol/kg sc twice daily) of the same compound?
Its HOMA is 3.31.

And the “BW day 14 (% change of vehicle mean)” value [3, 4]?
Its value is −19%.

And the HOMA ([3]; 10 nmol/kg sc twice daily)?
The HOMA was 1.98.

What about the “body weight over the 14 day dosing period” value ([3]; DIO mice, FIGS. 5-8) of the same compound?
The value was “dose dependent and continuous weight loss”.

And the BeHy ([3]; dose in Table 17: 5 nmol/kg)?
Its BeHy is 593.56 µmol/L.

What about the FGF21 ([3]; dose in Table 17: 5 nmol/kg) of the same compound?
The FGF21 was 4459 pg/mL.

And the “Hepatic TG” value ([3]; dose in Table 17: 5 nmol/kg)?
Its value is 14.7 g TB/100 g tissue.

What about the “Plasma Cholesterol” value ([3]; dose in Table 17: 5 nmol/kg) of the same compound?
Its value is 2.32 mM.

What about the “Plasma TG” value ([3]; dose in Table 17: 5 nmol/kg) of the same compound?
Its value is 0.16 mM.

And the BeHy ([3]; dose in Table 17: 50 nmol/kg)?
The BeHy was 673.08 µmol/L.

And the FGF21 ([3]; dose in Table 17: 50 nmol/kg)?
The FGF21 was 2582 pg/mL.

What about the “Hepatic TG” value ([3]; dose in Table 17: 50 nmol/kg) of the same compound?
The value was 13.3 g TB/100 g tissue.

What about the “Plasma Cholesterol” value ([3]; dose in Table 17: 50 nmol/kg) of the same compound?
The value was 2.88 mM.

What about the “Plasma TG” value ([3]; dose in Table 17: 50 nmol/kg) of the same compound?
The value was 0.39 mM.

And the “Overall daily food intake compared with placebo” value (healthy volunteers; Dose (µg) 5)?
The value was 100%.

What about the “Median glucose peak after breakfast” value (healthy volunteers; Dose (µg) 5) of the same compound?
Its value is 6.2 mmol/L.

And the “Median glucose peak after dinner” value (healthy volunteers; Dose (µg) 5)?
Its value is 7.0 mmol/L.

What about the “Median glucose peak after lunch” value (healthy volunteers; Dose (µg) 5) of the same compound?
The value was 4.9 mmol/L.

And the “Overall daily food intake compared with placebo” value (healthy volunteers; Dose (µg) 10)?
The value was 100%.

What about the “Median glucose peak after breakfast” value (healthy volunteers; Dose (µg) 10) of the same compound?
The value was 5.8 mmol/L.

And the “Median glucose peak after dinner” value (healthy volunteers; Dose (µg) 10)?
Its value is 6.0 mmol/L.

And the “Median glucose peak after lunch” value (healthy volunteers; Dose (µg) 10)?
The value was 5.1 mmol/L.

And the “Overall daily food intake compared with placebo” value (healthy volunteers; Dose (µg) 30)?
Its value is 96%.

And the “Median glucose peak after breakfast” value (healthy volunteers; Dose (µg) 30)?
Its value is 5.4 mmol/L.

What about the “Median glucose peak after dinner” value (healthy volunteers; Dose (µg) 30) of the same compound?
The value was 5.2 mmol/L.

And the “Median glucose peak after lunch” value (healthy volunteers; Dose (µg) 30)?
Its value is 4.4 mmol/L.

What about the “Overall daily food intake compared with placebo” value (healthy volunteers; Dose (µg) 100) of the same compound?
Its value is 82%.

What about the “Median glucose peak after breakfast” value (healthy volunteers; Dose (µg) 100) of the same compound?
The value was 5.5 mmol/L.

And the “Median glucose peak after dinner” value (healthy volunteers; Dose (µg) 100)?
Its value is 5.2 mmol/L.

And the “Median glucose peak after lunch” value (healthy volunteers; Dose (µg) 100)?
Its value is 4.7 mmol/L.

And the “Overall daily food intake compared with placebo” value (healthy volunteers; Dose (µg) 150)?
The value was 60%.

And the “Median glucose peak after breakfast” value (healthy volunteers; Dose (µg) 150)?
The value was 5.1 mmol/L.

And the “Median glucose peak after dinner” value (healthy volunteers; Dose (µg) 150)?
The value was 5.2 mmol/L.

And the “Median glucose peak after lunch” value (healthy volunteers; Dose (µg) 150)?
The value was 5.1 mmol/L.

What about the “Overall daily food intake compared with placebo” value (healthy volunteers; Dose (µg) 300) of the same compound?
Its value is 23%.

What about the “Median glucose peak after breakfast” value (healthy volunteers; Dose (µg) 300) of the same compound?
The value was 4.7 mmol/L.

What about the “Median glucose peak after dinner” value (healthy volunteers; Dose (µg) 300) of the same compound?
The value was 4.9 mmol/L.

And the “Median glucose peak after lunch” value (healthy volunteers; Dose (µg) 300)?
The value was 5.1 mmol/L.

What about the “overall daily food intake” value (healthy volunteers; all single doses compared with placebo) of the same compound?
Its value is “reduction in overall daily food intake”.

What about the plasma glucose levels (healthy volunteers; all single doses, 2.5-14 hours post-dose) of the same compound?
Its plasma glucose levels is “glucose lowering effect”.
